Laboratory results as given in publication PMC10445290, “Enantiomeric Fractions Reveal Differences in the Atropselective Disposition of 2,2′,3,5′,6-Pentachlorobiphenyl (PCB 95) in Wildtype, Cyp2abfgs-Null, and CYP2A6-Humanized Mice” (Chemical Research in Toxicology, 2023).
Like-named read-outs stand apart in the source and are kept apart here.

Assays:
[1] = Levels of PCB 95 and its hydroxylated metabolites in adipose, blood, brain and liver 24 h after a single oral dose (GC-MS/MS); assay type: in vivo, mice; details: for Levels in blood / Levels in adipose / Levels in liver / concentration at 24 h: 1 mg/kg; for concentration at 24 h: po
Method: Adult male and female wild-type (WT) C57BL/6 mice, KO, and KI mice (4 months old) were exposed to racemic PCB 95. Mice were randomly assigned to exposure groups and received a single oral dose of PCB 95 (1.0 mg/kg) in stripped corn oil (10 mL/kg; lot# A0395699; cat# 801-03-7; Fisher Scientific) via gavage (5–7 mice per group). Control animals received corn oil alone (1–3 mice per group) to assess the potential background contamination with PCB 95. Animals were euthanized 24 h after PCB 95 exposure. Blood was collected from the heart and placed in pre-weighed glass vials with 80 μL of ethylenediaminetetraacetic acid solution (EDTA, 7.5%, w/w). The amount of blood in each vial was determined by weight prior to sample extraction. Adipose, brain, and liver tissues were excised from each animal and individually wrapped in aluminum foil. Samples were stored at −80 °C in separate plastic bags and shipped on dry ice to the University of Iowa for analysis.
PCB 95 and its hydroxylated metabolites were extracted from adipose (0.06 ± 0.01 g), brain (0.19 ± 0.03 g) and liver tissues (0.49 ± 0.07 g) by pressurized liquid extraction (PLE) with a Dionex ASE200 system (Dionex, Sunnyvale, CA, USA).[45] Tissues were homogenized with 2 g of pre-cleaned diatomaceous earth (Thermo Fisher Scientific, Pittsburgh, PA, USA) and placed in extraction cells loaded with 10 g of pre-extracted Florisil (60–100 mesh, Fisher Scientific, Pittsburgh, PA, USA). Tissue samples were then spiked with recovery standards [50 ng of PCB 117 in 50 μL of isooctane and 50 ng of 4′-159 (2′,3,3′,5,5′,6′-hexachlorobiphenyl-4-ol) in 50 μL of methanol]. For ongoing precision recovery (OPR) samples; recovery standard, internal standard, PCB 95, and its metabolites (50 ng each) were spiked to the method blank (DE only) and tissues from control animals. Cells were extracted with hexane–dichloromethane–methanol (48:43:9, v/v/v) at 100 °C and 1500 psi (10 MPa), with preheat equilibration for 6 min, 60% of cell flush volume, and 1 static cycle of 5 min. The extracts were concentrated to approximately 1 mL with a TurboVap II (Biotage, LLC, NC, USA) and transferred to new glass tubes with 1 mL of hexane. The solvent was evaporated to near dryness under a gentle stream of nitrogen, and extracts were redissolved in 1 mL of hexane.
PCB 95 and its hydroxylated metabolites were extracted from whole blood (0.45 ± 0.13 g) using a published liquid–liquid extraction procedure.[29] Briefly, blood samples were thawed, and 3 mL of aqueous 1% KCl solution was added to each sample. Recovery standards (50 ng of PCB 117 in 50 μL of isooctane and 50 ng of 4′-159 in 50 μL of methanol) were spiked to all samples, including OPR samples, before extraction. Subsequently, 1 mL of 6 M HCl, 5 mL of 2-propanol, and 5 mL of 1:1 hexane–MTBE mixture (v/v) were added to the blood samples. The samples were inverted for 5 min and centrifuged at 1690g for 5 min to facilitate the phase separation. Next, the organic phases were transferred to new glass tubes, and the aqueous phases were re-extracted with 3 mL of hexane. Next, three mL of aqueous 1% KCl were added to the combined organic extracts, and samples were inverted and centrifuged as described above. The organic phase was transferred to a new tube, and the aqueous phase was re-extracted with 3 mL of hexane. The combined organic extracts were evaporated to near dryness using a Savant SpeedVac SPD210 (Thermo Scientific, Waltham, MA, US), and each sample was reconstituted with 0.5 mL of hexane.
Five drops of methanol and 0.5 mL of diazomethane (CH2N2; about 0.1 mmol) in diethyl ether were added to the tissue or blood extracts to derivatize the OH-PCBs.[45] Diazomethane rapidly converts the phenolic hydroxyl groups of OH-PCBs to methoxy groups (i.e., −OH → −OCH3). All samples were stored at 4 °C for approximately 16 h. Excess diazomethane evaporated under a gentle stream of nitrogen in a fume hood, followed by adding 0.5 mL of hexane. […]

[2] = cited from earlier work
[3] = design: method as in PMID 26463278; details: male Wistar rats, sub-acute oral exposure; cited from earlier work
[4] = cited from earlier work; remark: listed apart in the source
[5] = MKI, male CYP2A6-humanized mice, single oral PCB 95 1.0 mg/kg, mean ± SD
[6] = MWT, male wildtype mice, single oral PCB 95 1.0 mg/kg, mean ± SD
[7] = collected in 2001 from Japanese women

Clc1ccc(Cl)c(-c2c(Cl)ccc(Cl)c2Cl)c1 [PCB 95, 2,2′,3,5′,6-pentachlorobiphenyl]
Levels in blood ([1]; FKO, female Cyp2abfgs-null mice, single oral PCB 95 1.0 mg/kg, mean ± SD): 9 ng/g tissue | Levels in adipose ([1]; FWT, female wildtype mice, single oral PCB 95 1.0 mg/kg, mean ± SD): 1300 ng/g tissue | Levels in blood [1, 5]: 16 ng/g tissue | Levels in liver [1, 5]: 183 ng/g tissue | Levels in adipose ([1]; MKO, male Cyp2abfgs-null mice, single oral PCB 95 1.0 mg/kg, mean ± SD): 690 ng/g tissue | Levels in adipose [1, 6]: 1300 ng/g tissue | Levels in liver [1, 6]: 96 ng/g tissue | Kp at 24 h ([1]; both sexes, C57BL/6 (wild-type), KO and KI, mouse, adipose / whole blood, all six exposure groups, single oral 1.0 mg/kg, read-out: Mean adipose levels, times higher than the blood levels): 42 to 68 | concentration at 24 h ([1]; both sexes, C57BL/6 (wild-type), KO and KI, mouse, brain, range across all three genotypes and both sexes, single oral 1.0 mg/kg, read-out: PCB 95 levels in the whole brain): 13 to 21 ng/g | concentration at 24 h ([1]; female, C57BL/6 (wild-type), mouse, adipose, FWT, female wildtype mice, single oral PCB 95 1.0 mg/kg, mean ± SD, read-out: Levels in adipose): 1310 ± 405 ng/g | concentration at 24 h ([1]; female, C57BL/6 (wild-type), mouse, brain, FWT, female wildtype mice, single oral PCB 95 1.0 mg/kg, mean ± SD, read-out: Levels in brain): 19.2 ± 7.3 ng/g | concentration at 24 h ([1]; female, C57BL/6 (wild-type), mouse, liver, FWT, female wildtype mice, single oral PCB 95 1.0 mg/kg, mean ± SD, read-out: Levels in liver): 120 ± 42.1 ng/g | concentration at 24 h ([1]; female, C57BL/6 (wild-type), mouse, whole blood, FWT, female wildtype mice, single oral PCB 95 1.0 mg/kg, mean ± SD, read-out: Levels in blood): 9.1 ± 2.7 ng/g | concentration at 24 h ([1]; female, CYP2A6-humanized (KI), mouse, adipose, FKI, female CYP2A6-humanized mice, single oral PCB 95 1.0 mg/kg, mean ± SD, read-out: Levels in adipose): 824 ± 458 ng/g | concentration at 24 h ([1]; female, CYP2A6-humanized (KI), mouse, brain, FKI, female CYP2A6-humanized mice, single oral PCB 95 1.0 mg/kg, mean ± SD, read-out: Levels in brain): 19.7 ± 6.8 ng/g | concentration at 24 h ([1]; female, CYP2A6-humanized (KI), mouse, liver, FKI, female CYP2A6-humanized mice, single oral PCB 95 1.0 mg/kg, mean ± SD, read-out: Levels in liver): 114 ± 44.1 ng/g | concentration at 24 h ([1]; female, CYP2A6-humanized (KI), mouse, whole blood, FKI, female CYP2A6-humanized mice, single oral PCB 95 1.0 mg/kg, mean ± SD, read-out: Levels in blood): 12.9 ± 15.4 ng/g | concentration at 24 h ([1]; female, Cyp2abfgs-null (KO), mouse, adipose, FKO, female Cyp2abfgs-null mice, single oral PCB 95 1.0 mg/kg, mean ± SD, read-out: Levels in adipose): 859 ± 317 ng/g | concentration at 24 h ([1]; female, Cyp2abfgs-null (KO), mouse, brain, FKO, female Cyp2abfgs-null mice, single oral PCB 95 1.0 mg/kg, mean ± SD, read-out: Levels in brain): 20.6 ± 8.2 ng/g | concentration at 24 h ([1]; female, Cyp2abfgs-null (KO), mouse, liver, FKO, female Cyp2abfgs-null mice, single oral PCB 95 1.0 mg/kg, mean ± SD, read-out: Levels in liver): 109 ± 29.7 ng/g | concentration at 24 h ([1]; female, Cyp2abfgs-null (KO), mouse, whole blood, FKO, female Cyp2abfgs-null mice, single oral PCB 95 1.0 mg/kg, mean ± SD, read-out: Levels in blood): 8.6 ± 4.2 ng/g | concentration at 24 h ([1]; male, C57BL/6 (wild-type), mouse, adipose, MWT, male wildtype mice, single oral PCB 95 1.0 mg/kg, mean ± SD, read-out: Levels in adipose): 1320 ± 297 ng/g | concentration at 24 h ([1]; male, C57BL/6 (wild-type), mouse, brain, MWT, male wildtype mice, single oral PCB 95 1.0 mg/kg, mean ± SD, read-out: Levels in brain): 19.3 ± 4 ng/g | concentration at 24 h ([1]; male, C57BL/6 (wild-type), mouse, liver, MWT, male wildtype mice, single oral PCB 95 1.0 mg/kg, mean ± SD, read-out: Levels in liver): 96.3 ± 31.7 ng/g | concentration at 24 h ([1]; male, C57BL/6 (wild-type), mouse, whole blood, MWT, male wildtype mice, single oral PCB 95 1.0 mg/kg, mean ± SD, read-out: Levels in blood): 14.1 ± 2 ng/g | concentration at 24 h ([1]; male, CYP2A6-humanized (KI), mouse, adipose, MKI, male CYP2A6-humanized mice, single oral PCB 95 1.0 mg/kg, mean ± SD, read-out: Levels in adipose): 734 ± 355 ng/g | concentration at 24 h ([1]; male, CYP2A6-humanized (KI), mouse, brain, MKI, male CYP2A6-humanized mice, single oral PCB 95 1.0 mg/kg, mean ± SD, read-out: Levels in brain): 13.3 ± 5.7 ng/g | concentration at 24 h ([1]; male, CYP2A6-humanized (KI), mouse, liver, MKI, male CYP2A6-humanized mice, single oral PCB 95 1.0 mg/kg, mean ± SD, read-out: Levels in liver): 183 ± 190 ng/g | concentration at 24 h ([1]; male, CYP2A6-humanized (KI), mouse, whole blood, MKI, male CYP2A6-humanized mice, single oral PCB 95 1.0 mg/kg, mean ± SD, read-out: Levels in blood): 15.6 ± 18.3 ng/g | concentration at 24 h ([1]; male, Cyp2abfgs-null (KO), mouse, adipose, MKO, male Cyp2abfgs-null mice, single oral PCB 95 1.0 mg/kg, mean ± SD, read-out: Levels in adipose): 692 ± 93 ng/g | concentration at 24 h ([1]; male, Cyp2abfgs-null (KO), mouse, brain, MKO, male Cyp2abfgs-null mice, single oral PCB 95 1.0 mg/kg, mean ± SD, read-out: Levels in brain): 13.1 ± 6.1 ng/g | concentration at 24 h ([1]; male, Cyp2abfgs-null (KO), mouse, liver, MKO, male Cyp2abfgs-null mice, single oral PCB 95 1.0 mg/kg, mean ± SD, read-out: Levels in liver): 146 ± 42.6 ng/g | concentration at 24 h ([1]; male, Cyp2abfgs-null (KO), mouse, whole blood, MKO, male Cyp2abfgs-null mice, single oral PCB 95 1.0 mg/kg, mean ± SD, read-out: Levels in blood): 10.6 ± 7.4 ng/g | Mean PCB 95 blood level ([2]; corresponding dams, exposure via diet through gestation and lactation): 16 ng/g | PCB 95 levels in the liver ([2]; corresponding offspring on postnatal day 21): 150 ng/g wet weight | PCB 95 levels in brain ([2]; dams euthanized on postnatal day 21): 47 ng/g | PCB 95 levels in adipose tissue ([2]; dams exposed during gestation and lactation, high dose 6.0 mg/kg bw/d): 11,600 ng/g | PCB 95 levels in adipose tissue ([2]; dams exposed during gestation and lactation, low dose 0.1 mg/kg bw/d): 170 ng/g | PCB 95 levels in blood ([2]; dams exposed orally during gestation and lactation, high dose 6.0 mg/kg bw/d): 52 ng/g | PCB 95 levels in blood ([2]; dams exposed orally during gestation and lactation, low dose 0.1 mg/kg bw/d): not detected | PCB 95 levels in the liver ([2]; dams exposed throughout gestation and lactation): 120 ng/g wet weight | PCB 95 levels in the liver ([2]; dams exposed to racemic PCB 95 during gestation and lactation, high dose 6.0 mg/kg bw/d): 700 ng/g | PCB 95 levels in the liver ([2]; dams exposed to racemic PCB 95 during gestation and lactation, low dose 0.1 mg/kg bw/d): 12 ng/g | PCB 95 levels in adipose tissue ([2]; female mice, sub-chronic oral exposure, 0.1 mg/kg bw/d): 1800 ng/g | PCB 95 levels in adipose tissue ([2]; female mice, sub-chronic oral exposure, 6.0 mg/kg bw/d): 47,000 ng/g | PCB 95 levels in blood ([2]; female mice, subchronic oral exposure, 0.1 mg/kg bw/d): 90 ng/g | PCB 95 levels in blood ([2]; female mice, subchronic oral exposure, 6.0 mg/kg bw/d): 1200 ng/g | PCB 95 levels in brain ([2]; mice exposed orally to different doses throughout pregnancy, below the detection limit): < 140 ng/g | PCB 95 levels in brain ([2]; offspring of pregnant mice exposed developmentally, postnatal day 7): 50 ng/g | PCB 95 levels in brain ([2]; offspring of pregnant mice exposed developmentally, postnatal day 21): 70 ng/g | PCB 95 levels in blood ([2]; postnatal day 21 pups exposed throughout gestation and lactation via the maternal diet): 36 ng/g | PCB 95 levels in adipose tissue [3]: 9300 ng/g | PCB 95 levels in blood [3]: 9 ng/g | PCB 95 levels in the cerebellum [3]: 51 ng/g | PCB 95 levels in the cortex [3]: 29 ng/g | PCB 95 levels in the liver [3]: 120 ng/g | PCB 95 concentration in maternal serum ([4]; MARBLES cohort, detected in only one sample): 0.1 ng/g wet weight | PCB 95 in human adipose tissue ([4]; collected 2008 to 2009 during abdominal operations, Southeast China): below the limit of detection | PCB 95 in breast adipose tissue [4, 7]: below the detection limit | PCB 95 in serum [4, 7]: below the detection limit | Average PCB 95 levels in postmortem brain tissues ([4]; older donors aged 58 to 80, United States): 0.13 ng/g | PCB 95 in human liver samples ([4]; small human cohort from Belgium (N = 11)): below the limit of detection | PCB 95 in postmortem brain tissues ([4]; younger donors aged 0 days to 1 year): not detected
